Laboratory results reported in patent US7807828B2, “Olanzapine analogs and methods of use thereof” (Hypnion, Inc., priority 2005, dated 2010).
Read-outs that look alike come from different tables or passages of the source.

Tests used:
[1] = target: T1, H1 (hr) (Homo sapiens, UniProt P35367); test: H1 (hr) Novascreen binding assay; conditions: Table 7A; Ki in nM
T1 construct: Novascreen, MDS, Cerep (assay providers)
Experimental: Binding assays were performed using various sleep-inducing agents and derivatives selected from those listed in Table 1 in competitive binding assays with known standards for the H1 histamine receptor, and the M1, M2, and M3 muscarinic receptors, alpha 1 and alpha 2 receptors, D1 and D2 receptors, 5HT2a, 5HT2b, 5HT2c, 5HT2c, and 5HT7 receptors.
The histamine H1 assays are described in Chang, et al., Heterogeneity of Histamine H1-Receptors: Species Variation in [^3H]Mepyramine Binding of Brain Membranes. Journal of Neurochemistry. 32: 1653-1663 (1979); Martinez-Mir, M. I., Pollard, H., Moreau, J., et al. Three Histamine Receptors (H1, H2, and H3) Visualized in the Brain of Human and Non-Human Primates. Brain Res. 526: 322-327 (1990); Haaksma, E. E. J., Leurs, R. and Timmerman, H. Histamine Receptors: Subclasses and Specific Ligands. Pharmac. Ther. 47: 73-104 (1990). The muscarinic assays are described in Buckley, N. J., Bonner, T. I., Buckley, C. M., and Brann, M. R. Antagonist Binding Properties of Five Cloned Muscarinic Receptors Expressed in CHO-K1 Cells. Mol. Pharmacol. 35: 469-476 (1989). The assays were performed according to the preceding articles, with the following modifications. Chemical reagents in the following were obtained from Sigma, St. Louis, Mo.

[2] = tested on: adult, male Wistar rats; test: Sleep-wakefulness monitoring (SCORE-2000, EEG/EMG) in rats; type: in vivo, rat; conditions: minutes; for LONGEST UNINTERRUPTED SLEEP BOUT 10 mg/kg / NREM CUMULATION 10 mg/kg: oral bolus at CT-18, 10 mg/kg; for LONGEST UNINTERRUPTED SLEEP BOUT 30 mg/kg / NREM CUMULATION 30 mg/kg: oral bolus at CT-18, 30 mg/kg
Experimental: Sleep-wakefulness, locomotor activity and body temperature are monitored in male Wistar rats treated with a test compound (i.e., olanzapine analog) initially at a concentration of 10 mg/kg. Higher and lower doses are assayed for select compounds (e.g., as high as 45 mg/kg, and as low as necessary to establish a no-effect dose). Treatments are administered at CT-18, the peak of the activity dominated period (6 hours after lights-off), and produced soporific (sleep-inducing) effects characterized by increased non-REM sleep time, increased sleep continuity, but without evidence of REM sleep inhibition or rebound insomnia.
Sleep-wakefulness, locomotor activity and body temperature were monitored in vivo with various compounds of the invention. Adult, male Wistar rats (250 g at time of surgery, Charles River Laboratories, Wilmington Mass.) were anesthetized (2% isoflourane in medical grade oxygen) and surgically prepared with a cranial implant to permit chronic electro-encephalogram (EEG) and electromyogram (EMG) recording. Body temperature and locomotor activity were monitored via a miniature transmitter (Mini-Mitter, Bend, Oreg.) surgically placed in the abdomen. The cranial implant consisted of stainless steel screws (two frontal (+3.2 AP from bregma, ±2.0 ML) and two occipital (−6.9 AP, ±5.5 ML)) for EEG recording. Two Teflon®-coated stainless steel wires were positioned under the nuchal trapezoid muscles for EMG recording. All leads were soldered to a miniature connector prior to surgery, and gas sterilized in ethylene oxide. The implant assembly was affixed to the skull with dental acrylic. A minimum of three weeks was allowed for surgical recovery.
Each rat was permanently housed in its own individual recording cage located within separate, ventilated compartments of custom-designed stainless steel cabinets. Each cage was enhanced with a filter-top riser and low-torque swivel-commutator. Food and water were available ad libitum. A 24-hr light-dark cycle (12 hours light, 12 hours dark) was maintained throughout the study. Animals were undisturbed for at least 48 hours before and after treatments.
Sleep and wakefulness were determined using “SCORE-2000™” (Hypnion, Worcester, Mass.)—an internet-based sleep-wake and physiological monitoring system. The system monitored amplified EEG (bandpass 1-30 Hz), integrated EMG (bandpass 10-100 Hz), body temperature and non-specific locomotor activity (LMA) via telemetry, and drinking activity, continuously and simultaneously. Arousal states were classified on-line as non-REM (NREM) sleep, REM sleep, wake, or theta-dominated wake every 10 seconds. Total drinking and locomotor activity counts, and body temperature were quantitiated and recorded each minute, using EEG feature extraction and pattern-matching algorithms. […] The classification algorithm used individually-taught EEG-arousal-state templates, plus EMG criteria to differentiate REM sleep from theta-dominated wakefulness, plus behavior-dependent contextual rules (e.g., if the animal was drinking, it is awake). Drinking and locomotor activity intensity (LMA) were recorded every 10 seconds, while body temperature was recorded each minute. Locomotor activity was detected by a telemetry receiver (Mini-Mitter) beneath the cage. Telemetry measures (LMA and body temperature) were not part of the scoring algorithm; thus, sleep-scoring and telemetry data were independent measures.
Compounds were administered at CT-18, the peak of the activity-dominated period, sufficient time was allowed to view the time course of the treatment effect before lights-on (6 hours post-treatment). Compounds were suspended in sterile 0.25% or 0.5% methylcellulose (1-2 ml/kg). Treatments were administered orally as a bolus.
A parallel group study design was employed. […]

[3] = target: T2, 5HT2a (hctx) (Homo sapiens, UniProt P28223); test: 5HT2a (hctx) binding assay; conditions: Table 7B; unit inferred
T2 construct: (hctx); from tissue; host or cells: human cortex (my reading of 'hctx')

[4] = target: 5HT2b (h) (Homo sapiens, UniProt P41595); test: 5HT2b (h) binding assay; conditions: Table 7B; unit inferred
[5] = target: D2 (h) (Homo sapiens, UniProt P14416); test: Dopamine D2 binding assay; conditions: Table 7A; unit inferred
[6] = target: T3, human recombinant M1 expressed in CHO cells (Homo sapiens, UniProt P11229); conditions: reference compounds; read-out: Ki of reference compounds in the M1 binding assay; cited from earlier work
T3 construct: purchased PerkinElmer, Inc., Wellesley, Mass; host or cells: CHO cells
T3 sequence (P11229 1-460): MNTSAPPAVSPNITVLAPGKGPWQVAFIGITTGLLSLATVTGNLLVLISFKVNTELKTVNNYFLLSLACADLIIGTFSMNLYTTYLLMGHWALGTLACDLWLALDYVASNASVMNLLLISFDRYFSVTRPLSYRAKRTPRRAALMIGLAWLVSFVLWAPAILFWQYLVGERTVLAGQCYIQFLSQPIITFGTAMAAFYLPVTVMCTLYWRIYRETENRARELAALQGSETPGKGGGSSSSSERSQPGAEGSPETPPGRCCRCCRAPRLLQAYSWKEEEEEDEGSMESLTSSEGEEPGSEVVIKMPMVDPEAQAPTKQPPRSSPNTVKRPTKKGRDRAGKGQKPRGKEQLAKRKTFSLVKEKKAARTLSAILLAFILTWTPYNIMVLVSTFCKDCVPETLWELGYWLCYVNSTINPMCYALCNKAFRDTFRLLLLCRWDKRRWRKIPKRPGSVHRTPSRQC

[7] = target: T4, human recombinant M2 expressed in CHO cells (Homo sapiens, UniProt P08172); test: M2 muscarinic receptor binding assay; conditions: Table 7A, M1 M2 M3
T4 construct: purchased PerkinElmer, Inc., Wellesley, Mass; host or cells: CHO cells
T4 sequence (P08172 1-466): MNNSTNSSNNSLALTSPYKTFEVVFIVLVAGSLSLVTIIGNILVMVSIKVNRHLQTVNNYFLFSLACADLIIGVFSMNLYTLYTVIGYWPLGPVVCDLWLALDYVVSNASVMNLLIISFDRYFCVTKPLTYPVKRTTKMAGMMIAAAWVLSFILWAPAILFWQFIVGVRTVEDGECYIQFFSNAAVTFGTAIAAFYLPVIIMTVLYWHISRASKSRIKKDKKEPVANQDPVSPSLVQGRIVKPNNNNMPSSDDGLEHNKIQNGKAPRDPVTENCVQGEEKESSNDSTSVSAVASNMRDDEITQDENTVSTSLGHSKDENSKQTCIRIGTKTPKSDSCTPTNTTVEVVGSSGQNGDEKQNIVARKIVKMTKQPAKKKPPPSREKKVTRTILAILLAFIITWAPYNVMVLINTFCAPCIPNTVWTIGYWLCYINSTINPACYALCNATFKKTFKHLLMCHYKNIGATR

[8] = target: T5, human recombinant M3 expressed in CHO cells (Homo sapiens, UniProt P20309); test: M3 muscarinic receptor binding assay; conditions: Table 7A, third line of column M1 M2 M3
T5 construct: purchased PerkinElmer, Inc., Wellesley, Mass; host or cells: CHO cells

[9] = target: T6, histamine H1 receptor (bovine) (Bos taurus, UniProt P30546); test: Histamine H1 binding assay, bovine cerebellar membranes, [3H]pyrilamine; conditions: Table 7A; Ki in nM
T6 construct: the receptors were obtained from bovine cerebellar membrane tissue; from tissue; host or cells: bovine cerebellar membranes

[10] = target: D1 (h) (Homo sapiens, UniProt P21728); test: Dopamine D1 (human recombinant) binding assay; conditions: Table 7A; unit inferred
Experimental: Dopamine, D1 (human recombinant) binding assay was performed according to published procedures. See, e.g., Jarvie, et al. J. Recept Res., 13(1-4): 573-90 (1993); and Billard, et al. Life Sciences, 35(18): 1885-93 (1984), with modifications

[11] = target: 5HT2a (rat) (Rattus norvegicus, UniProt P14842); test: 5HT2a (rat) binding assay; conditions: Table 7A; unit inferred
[12] = target: T3, human recombinant M1 expressed in CHO cells; test: M1 muscarinic receptor binding assay; conditions: Table 7A, first line of column M1 M2 M3

T6 sequence (P30546 whole entry): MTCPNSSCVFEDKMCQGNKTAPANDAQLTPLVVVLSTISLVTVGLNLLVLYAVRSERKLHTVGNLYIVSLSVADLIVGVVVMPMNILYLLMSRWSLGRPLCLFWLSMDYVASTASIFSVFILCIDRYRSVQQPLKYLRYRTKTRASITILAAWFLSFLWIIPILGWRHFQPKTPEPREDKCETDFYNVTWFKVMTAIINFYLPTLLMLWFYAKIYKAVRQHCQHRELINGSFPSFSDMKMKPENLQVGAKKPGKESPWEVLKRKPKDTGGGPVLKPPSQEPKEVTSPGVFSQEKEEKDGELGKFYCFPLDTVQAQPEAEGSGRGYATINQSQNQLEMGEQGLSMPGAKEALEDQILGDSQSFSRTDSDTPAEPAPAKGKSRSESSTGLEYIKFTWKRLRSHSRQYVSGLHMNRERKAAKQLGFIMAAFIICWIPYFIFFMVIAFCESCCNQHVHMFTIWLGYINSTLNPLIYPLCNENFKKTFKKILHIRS
T2 sequence (P28223 whole entry): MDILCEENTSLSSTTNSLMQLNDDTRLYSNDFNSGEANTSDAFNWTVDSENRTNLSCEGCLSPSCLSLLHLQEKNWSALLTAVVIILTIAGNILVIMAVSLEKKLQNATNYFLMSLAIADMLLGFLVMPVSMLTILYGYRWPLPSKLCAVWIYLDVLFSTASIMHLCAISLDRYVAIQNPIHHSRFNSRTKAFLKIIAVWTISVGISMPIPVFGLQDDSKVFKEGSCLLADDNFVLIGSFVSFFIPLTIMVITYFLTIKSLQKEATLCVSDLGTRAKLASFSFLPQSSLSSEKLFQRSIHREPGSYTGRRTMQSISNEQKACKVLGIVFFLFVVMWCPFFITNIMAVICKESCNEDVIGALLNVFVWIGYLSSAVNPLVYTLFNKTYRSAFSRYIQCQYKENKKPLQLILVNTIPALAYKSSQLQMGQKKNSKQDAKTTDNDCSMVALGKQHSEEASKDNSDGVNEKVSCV
D2 (h), sequence (P14416 whole entry): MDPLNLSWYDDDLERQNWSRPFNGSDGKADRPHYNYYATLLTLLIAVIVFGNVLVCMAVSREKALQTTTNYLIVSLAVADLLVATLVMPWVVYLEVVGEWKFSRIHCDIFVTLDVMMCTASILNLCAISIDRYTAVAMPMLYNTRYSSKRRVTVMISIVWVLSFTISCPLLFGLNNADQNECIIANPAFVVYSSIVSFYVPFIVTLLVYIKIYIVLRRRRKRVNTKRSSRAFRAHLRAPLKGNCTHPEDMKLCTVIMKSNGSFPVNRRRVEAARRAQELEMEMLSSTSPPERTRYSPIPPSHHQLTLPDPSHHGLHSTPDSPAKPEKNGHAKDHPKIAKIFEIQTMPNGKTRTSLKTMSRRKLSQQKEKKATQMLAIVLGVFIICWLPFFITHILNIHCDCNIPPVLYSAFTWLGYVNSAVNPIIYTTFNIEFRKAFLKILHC
T5 sequence (P20309 whole entry): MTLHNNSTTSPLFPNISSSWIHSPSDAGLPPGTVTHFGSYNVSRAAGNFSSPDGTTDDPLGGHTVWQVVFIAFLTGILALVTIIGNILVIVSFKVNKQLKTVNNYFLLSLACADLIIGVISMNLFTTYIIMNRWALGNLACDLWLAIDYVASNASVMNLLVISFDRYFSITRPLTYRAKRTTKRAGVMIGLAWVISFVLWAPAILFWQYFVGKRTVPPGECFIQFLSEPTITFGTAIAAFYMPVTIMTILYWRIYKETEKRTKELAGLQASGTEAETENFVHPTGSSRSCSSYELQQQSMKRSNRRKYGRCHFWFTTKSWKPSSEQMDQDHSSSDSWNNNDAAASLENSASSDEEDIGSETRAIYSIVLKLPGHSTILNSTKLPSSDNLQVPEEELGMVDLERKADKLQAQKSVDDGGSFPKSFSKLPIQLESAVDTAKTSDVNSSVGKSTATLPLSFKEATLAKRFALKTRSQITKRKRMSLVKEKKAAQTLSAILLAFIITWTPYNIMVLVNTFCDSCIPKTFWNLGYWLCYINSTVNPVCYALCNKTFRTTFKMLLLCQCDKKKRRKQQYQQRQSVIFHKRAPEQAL
D1 (h), sequence (P21728 whole entry): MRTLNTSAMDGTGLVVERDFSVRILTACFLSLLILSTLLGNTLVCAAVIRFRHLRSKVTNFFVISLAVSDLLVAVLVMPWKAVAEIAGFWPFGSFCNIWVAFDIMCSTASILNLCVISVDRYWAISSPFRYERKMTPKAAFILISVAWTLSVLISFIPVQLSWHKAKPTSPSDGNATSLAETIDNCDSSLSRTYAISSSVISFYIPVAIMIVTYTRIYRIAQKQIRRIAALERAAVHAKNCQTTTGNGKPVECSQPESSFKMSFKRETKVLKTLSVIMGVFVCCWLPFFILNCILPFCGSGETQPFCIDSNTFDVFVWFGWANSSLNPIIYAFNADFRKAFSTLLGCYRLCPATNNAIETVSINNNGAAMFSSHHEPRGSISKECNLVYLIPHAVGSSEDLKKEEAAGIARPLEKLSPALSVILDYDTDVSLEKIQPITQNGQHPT
5HT2b (h), sequence (P41595 whole entry): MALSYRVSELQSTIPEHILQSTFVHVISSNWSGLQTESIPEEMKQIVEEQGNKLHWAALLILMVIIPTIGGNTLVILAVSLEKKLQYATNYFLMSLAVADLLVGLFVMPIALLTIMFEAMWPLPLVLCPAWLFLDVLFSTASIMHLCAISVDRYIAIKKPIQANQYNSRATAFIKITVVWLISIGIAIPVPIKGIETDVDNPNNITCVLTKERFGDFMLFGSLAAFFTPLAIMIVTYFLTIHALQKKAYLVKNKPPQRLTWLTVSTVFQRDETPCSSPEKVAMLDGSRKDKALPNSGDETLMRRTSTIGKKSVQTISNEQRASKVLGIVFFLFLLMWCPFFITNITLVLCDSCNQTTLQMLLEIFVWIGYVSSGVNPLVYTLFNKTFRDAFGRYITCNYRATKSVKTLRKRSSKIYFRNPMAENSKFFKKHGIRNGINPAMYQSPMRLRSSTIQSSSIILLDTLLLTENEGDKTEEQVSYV
5HT2a (rat), sequence (P14842 whole entry): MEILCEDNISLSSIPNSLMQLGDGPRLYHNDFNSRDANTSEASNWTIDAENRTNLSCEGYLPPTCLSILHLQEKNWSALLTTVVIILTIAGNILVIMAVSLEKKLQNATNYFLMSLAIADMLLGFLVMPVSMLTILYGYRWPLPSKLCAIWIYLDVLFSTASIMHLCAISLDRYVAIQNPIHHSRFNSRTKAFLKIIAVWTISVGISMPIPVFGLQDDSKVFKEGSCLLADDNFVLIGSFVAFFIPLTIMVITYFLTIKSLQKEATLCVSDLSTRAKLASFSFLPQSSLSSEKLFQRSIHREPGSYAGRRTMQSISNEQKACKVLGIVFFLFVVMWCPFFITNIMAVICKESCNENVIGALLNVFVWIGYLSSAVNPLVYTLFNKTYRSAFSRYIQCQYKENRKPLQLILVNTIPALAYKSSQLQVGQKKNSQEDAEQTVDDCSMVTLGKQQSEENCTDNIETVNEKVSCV
T1 sequence (P35367 whole entry): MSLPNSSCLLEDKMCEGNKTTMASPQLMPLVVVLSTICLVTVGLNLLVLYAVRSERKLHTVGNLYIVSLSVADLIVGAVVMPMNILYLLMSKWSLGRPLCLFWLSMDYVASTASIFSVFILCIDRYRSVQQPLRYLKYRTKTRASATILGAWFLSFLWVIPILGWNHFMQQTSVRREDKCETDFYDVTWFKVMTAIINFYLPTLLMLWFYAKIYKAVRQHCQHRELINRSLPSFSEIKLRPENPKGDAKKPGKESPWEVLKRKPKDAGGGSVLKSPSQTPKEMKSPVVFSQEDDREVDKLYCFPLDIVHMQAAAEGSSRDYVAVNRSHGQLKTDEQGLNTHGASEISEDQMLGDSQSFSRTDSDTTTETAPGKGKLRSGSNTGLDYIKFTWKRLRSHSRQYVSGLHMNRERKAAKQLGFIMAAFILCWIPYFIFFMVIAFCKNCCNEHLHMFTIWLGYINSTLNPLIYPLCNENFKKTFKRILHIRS

Row | SMILES | LONGEST UNINTERRUPTED SLEEP BOUT 10 mg/kg [2] [min] | NREM CUMULATION 10 mg/kg [2] [min] | LONGEST UNINTERRUPTED SLEEP BOUT 30 mg/kg [2] [min] | NREM CUMULATION 30 mg/kg [2] [min] | also measured
1 | Cc1ccc2c(c1)Nc1sc(C)cc1C(N1CCN(CC(C)(C)C(=O)O)CC1)=N2 [Compound 95] | 15.8 ± 5.2 | 43 ± 5 | – | – | Ki [1]: 200 nM; Ki [3]: 28 nM; Ki [4]: 240 nM; Ki [5]: 970 nM
2 | Cc1cc2c(s1)Nc1cc(F)ccc1N=C2N1CCN(CC(C)(C)C(=O)O)CC1 [Compound 101] | 5.9 ± 2.4 | 51 ± 8 | – | – | –
3 | C[N+]1(C)CCC(OC(=O)C(c2ccccc2)c2ccccc2)CC1 [4-DAMP methiodide] | – | – | – | – | Ki [6]: 0.27 nM
4 | Cc1cc2c(s1)Nc1ccccc1N=C2N1CCN(CC(C)(C)C(=O)NS(C)(=O)=O)CC1 [Compound 89] | 5.7 ± 1.8 | 14 ± 7 | 13.6 ± 2.7 | 37 ± 6 | Ki [7]: > 10000 nM; Ki [8]: > 10000 nM; Ki [9]: 139 nM; Ki [10]: 6500 nM; Ki [11]: 29.5 nM; Ki [12]: > 10000 nM; Ki [3]: 1000 nM; Ki [5]: 927 nM
5 | Cc1cc2c(s1)Nc1ccccc1N=C2N1CCN(CCCC(=O)O)CC1 [Compound 93] | -3.0 ± 2.8 | 16 ± 6 | 2.0 ± 1.5 | 10 ± 5 | –
6 | COc1ccc2c(c1)Nc1sc(C)cc1C(N1CCN(CC(C)(C)C(=O)O)CC1)=N2 [Compound 98] | -6.2 ± 2.7 | 12 ± 7 | – | – | –
7 | CC(C)(CN1CCN(C2=Nc3ccccc3Nc3sccc32)CC1)C(=O)O [Compound 1] | -7.0 ± 2.4 | 6 ± 6 | 4.1 ± 2.1 | 12 ± 5 | Ki [7]: > 10000 nM; Ki [8]: > 10000 nM; Ki [9]: 2310 nM; Ki [12]: > 10000 nM
8 | Cc1ccc2c(c1)N=C(N1CCN(CC(C)(C)C(=O)O)CC1)c1cc(C)sc1N2 [Compound 52] | 5.9 ± 2.3 | 25 ± 5 | – | – | –
9 | Cc1ccc2c(c1)Nc1sc(C)cc1C(N1CCN(CCC(=O)O)CC1)=N2 [Compound 97] | -3.6 ± 2.6 | 7 ± 3 | – | – | –
